# In US8404647B2, “Peptidylarginine deiminase (PAD) inhibitors” (Chiralix B.V., priority 2008, dated 2013):
# Square brackets hold non-standard residues; d marks the D form. Peptide text beside a SMILES is read from it. * marks the point of attachment. CA = chloroamidine (on ornithine side chain, O(CA) = ornithine chloroamidine), N=C(CCl)*; Orn(fluoroacetimidoyl) = N=C(CF)NCCC[C@H](N)C(=O)O; Orn = NCCC[C@H](N)C(=O)O
# Tests used:
# creatine kinase (CK) = assay: Creatine kinase activity (CK NAC activated liquiUV test); assay type: biochemical, mammalian; details: enzyme treated with inhibitor 10 min at room temperature
# Procedure: (§1) The activities of CK and TG (both purchased from Sigma-Aldrich (Schnelldorf, Germany) were assayed with the help of the commercial kits CK NAC activated liquiUV test form
# (§2) Human GmbH (Wiesbaden, Germany) and the Enzymatic Assay of [sequence] from Sigma-Aldrich (Schnelldorf, Germany) according to the manufacturers' instructions.
# caspase-3 = molecular target: T1, caspase-3 (Homo sapiens, UniProt P42574); assay: Caspase-3 activity assay (Ac-DEVDpNA cleavage); assay type: biochemical, mammalian; details: enzyme treated with inhibitor 10 min at room temperature
# T1 sequence (P42574 29-175 limits assumed): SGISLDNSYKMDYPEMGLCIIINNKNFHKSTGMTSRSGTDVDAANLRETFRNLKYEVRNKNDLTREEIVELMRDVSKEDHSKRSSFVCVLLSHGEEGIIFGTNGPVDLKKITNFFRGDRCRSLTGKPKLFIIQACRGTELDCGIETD
# T1 sequence (P42574 176-277 limits assumed): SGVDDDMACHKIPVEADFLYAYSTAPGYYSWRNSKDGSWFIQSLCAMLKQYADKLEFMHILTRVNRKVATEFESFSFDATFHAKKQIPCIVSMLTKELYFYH
# Procedure: Upon incubation of purified recombinant caspase-3 with its commercially available substrate: acetyl-Asp-Glu-Val-Asp-p-nitroanilide (Ac-DEVDpNA) SEQ ID NO: 145 in CFS buffer (220 mM mannitol, 68 mM sucrose, 2mM NaCl, 2.5 mM KH2PO4, 10 mM HEPES, pH 7.4 plus a cocktail of protease inhibitors), the substrate is cleaved, pNA is released and its absorbance at 405 nm can be monitored.
# PAD2 [1] = molecular target: T2, PAD2 (Homo sapiens, UniProt Q9Y2J8); assay: Colorimetric assay (BAEE, DAMO/antipyrine), PAD2; assay type: biochemical; details: Table 22, colorimetric assay of Example 6; read-out: IC50 values (μM) hPAD2
# T2 sequence (Q9Y2J8 whole entry): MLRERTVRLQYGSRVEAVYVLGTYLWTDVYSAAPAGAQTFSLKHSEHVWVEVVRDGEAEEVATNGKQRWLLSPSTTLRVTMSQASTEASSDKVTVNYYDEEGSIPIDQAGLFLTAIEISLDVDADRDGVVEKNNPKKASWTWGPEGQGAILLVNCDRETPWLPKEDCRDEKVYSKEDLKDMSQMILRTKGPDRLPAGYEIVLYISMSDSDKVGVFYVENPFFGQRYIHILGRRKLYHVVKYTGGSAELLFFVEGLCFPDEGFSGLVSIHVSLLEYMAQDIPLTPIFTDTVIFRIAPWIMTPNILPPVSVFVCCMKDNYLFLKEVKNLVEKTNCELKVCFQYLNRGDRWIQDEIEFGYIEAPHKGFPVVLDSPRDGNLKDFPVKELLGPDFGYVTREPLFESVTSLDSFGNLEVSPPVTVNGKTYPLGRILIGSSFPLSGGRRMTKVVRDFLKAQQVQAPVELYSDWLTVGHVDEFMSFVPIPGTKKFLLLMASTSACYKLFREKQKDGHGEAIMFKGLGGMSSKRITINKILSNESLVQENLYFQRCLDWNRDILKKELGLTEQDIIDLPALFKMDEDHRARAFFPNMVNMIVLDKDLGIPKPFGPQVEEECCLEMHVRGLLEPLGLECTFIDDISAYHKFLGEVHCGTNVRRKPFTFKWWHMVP
# Procedure: One of the assays that was used to investigate the inhibition of a PAD by the inhibitors, is the colorimetric assay that has been described previously {Sugawara et al. 1998}. In this assay benzoylarginine ethyl ester (BAEE) is incubated with a purified recombinant PAD enzyme as indicated in a buffer containing 50 mM Tris-HCl, pH 7.6, 10 mM CaCl2, 2 mM dithiothreitol for 3 hours at 37° C. […] After cooling down to room temperature, the absorbance is measured at 450 nm.
# To test the efficacy of the inhibitors (see Table 21) in this assay, a recombinant PAD enzyme as indicated was pre-incubated with various concentrations of inhibitory compounds for 15 minutes at 37° C.
# The capacity of various compounds to inhibit the human PAD2 (0.12 μM) and PAD4 (0.2 μM) in this colorimetric assay is illustrated in FIG. 4.
# hDDAH-1 = hDDAH-1 (Homo sapiens, UniProt O94760); assay: biochemical
# hDDAH-1, sequence (O94760 whole entry): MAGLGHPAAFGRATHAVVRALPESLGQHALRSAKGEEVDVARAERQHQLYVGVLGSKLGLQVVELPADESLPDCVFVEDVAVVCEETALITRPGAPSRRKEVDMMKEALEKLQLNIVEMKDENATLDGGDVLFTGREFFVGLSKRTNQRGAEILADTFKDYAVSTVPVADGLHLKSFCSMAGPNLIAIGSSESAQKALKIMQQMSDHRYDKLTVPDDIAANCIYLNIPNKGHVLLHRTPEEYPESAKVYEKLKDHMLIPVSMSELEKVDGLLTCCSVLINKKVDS
# Procedure: The most commonly used procedure to determine hDDAH-1 activity relies on diacetyl monoxime (DAMO) derivatization of the ureido group in L-citrulline to form a colored product. This assay has been optimized for monitoring DDAH activity in a 96-well format {Knipp et al., 2000}.
# Purified recombinant His6-tagged hDDAH-1 was incubated with its substrate ADMA in assay buffer (100 mM Na2HPO4, pH 8.0) at 37° C. for 1 h. The reaction was quenched by the addition of 0.3 M trifluoroacetic acid. The L-citrulline formed was modified with 1.5 mg/ml DAMO (diacetyl monoxime) and 1.0 mg/ml antipyrine in the presence of 15% sulphuric acid, 12% phosphoric acid and 0.16 mg/ml FeCla3 for 10 minutes at 100° C. After cooling down to room temperature, the absorbance was measured at 450 nm.
# transglutaminase (TG) = transglutaminase (TG) (UniProt P08587); assay: biochemical
# transglutaminase (TG), sequence (P08587 whole entry): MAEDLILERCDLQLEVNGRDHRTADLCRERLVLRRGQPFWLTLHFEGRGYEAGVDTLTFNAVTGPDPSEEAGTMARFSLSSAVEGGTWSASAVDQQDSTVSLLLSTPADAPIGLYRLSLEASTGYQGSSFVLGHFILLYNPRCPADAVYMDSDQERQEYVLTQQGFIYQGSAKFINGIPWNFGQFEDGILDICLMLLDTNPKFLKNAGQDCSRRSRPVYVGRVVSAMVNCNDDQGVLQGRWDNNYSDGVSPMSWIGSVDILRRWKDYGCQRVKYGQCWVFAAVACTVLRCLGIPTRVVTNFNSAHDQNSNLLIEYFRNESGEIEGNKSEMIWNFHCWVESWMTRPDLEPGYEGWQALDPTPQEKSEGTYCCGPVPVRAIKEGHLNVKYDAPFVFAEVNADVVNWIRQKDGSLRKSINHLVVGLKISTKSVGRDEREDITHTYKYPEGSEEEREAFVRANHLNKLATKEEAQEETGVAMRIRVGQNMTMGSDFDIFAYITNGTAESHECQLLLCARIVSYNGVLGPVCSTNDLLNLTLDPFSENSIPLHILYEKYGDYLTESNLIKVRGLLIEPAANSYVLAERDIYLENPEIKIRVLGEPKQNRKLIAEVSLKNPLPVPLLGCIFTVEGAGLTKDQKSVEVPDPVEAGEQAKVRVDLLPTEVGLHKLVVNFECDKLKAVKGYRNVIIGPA
# Procedure: as §1, §2
# papain = papain (Carica papaya, UniProt P00784); assay: biochemical
# papain, sequence (P00784 134-345): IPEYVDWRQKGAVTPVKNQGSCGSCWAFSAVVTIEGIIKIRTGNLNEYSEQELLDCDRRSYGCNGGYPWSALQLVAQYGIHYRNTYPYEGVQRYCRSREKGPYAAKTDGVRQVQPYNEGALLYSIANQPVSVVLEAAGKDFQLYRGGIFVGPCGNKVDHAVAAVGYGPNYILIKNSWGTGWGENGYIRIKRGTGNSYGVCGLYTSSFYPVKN
# Procedure: The activity of papain was assessed using a similar experimental setting, based on its cleavage of pGlu-Phe-Leu-pNA in reaction buffer (25 mM Tris-HCL, pH 7.6; 150 mM NaCl).
# PAD2 [2] = molecular target: T2, PAD2; assay: ABAP antibody based PAD enzyme activity assay, PAD2; assay type: biochemical; details: Table 19, first 8 pentapeptide inhibitors
# Procedure: These 8 pentapeptides inhibitors are represented by SEQ ID NO: 12-19. (O(FA) stands for ornithine fluoroamidine, O(CA) stands for ornithine chloroamidine). The IC50's for human PAD2 and 4 as well as for mouse PAD2 and 4 were determined in an assay developed by Zendman and others {Zendman et al. 2007}. Of this series the inhibitor T-D-O(FA)-G-S(CXP5-101) (SEQ ID NO: 12) was the best PAD2 and PAD4 inhibitor. Subsequently, several modifications were brought to this lead compound.
# To determine inhibition of PAD2 and PAD4 activity, the commercially available Antibody based PAD enzyme activity assay from ModiQuest Research (cat no: MQ17.101) has been used according to manufacturers specifications.
# PAD enzymes (amounts that give maximum deimination) were mixed with PAD inhibitors at the following concentrations (4.9, 9.8, 19.5, 39, 78.1, 156, 313, 625, 1250, 2500 and 5000 μM) and pre-incubated for 30 minutes at 37° C. After pre-incubation, mixtures of PAD enzymes and inhibitors were added to the wells for an additional incubation of 75 minutes. After thoroughly washing the 96-well plates with PBS, the conversion of the arginines into citrullines of the coating was measured with the use of a propriety anti-citrulline-antibody, followed by a secondary HRP-labelled antibody recognizing the anti-citrulline antibody. Incubation with both antibodies was performed for 1 h at 37° C. […]
# [3] = test system: collagen antibody induced arthritis (CAIA); assay: Collagen antibody induced arthritis (CAIA) mouse model; assay type: in vivo; details: 0.5 mg daily i.v. day 3 to 11 except day 9, male DBA/J1 mice, FIG. 6
# Procedure: FIG. 6. The collagen antibody induced arthritis (CAIA) model (MQR; 18.101) was used to test the therapeutic effect of the PAD-inhibitor CXP5.7-011 (SEQ ID NO:143). At day 0 mice were injected i.p. with 2.8 mg anti-collagen antibodies. LPS (25 μg/mouse) was administered on day 3 via i.p. injection. The inhibitor (0.5 mg CXP5.7-011 in 200 μl PBS containing 20 mM sodium phosphate), or 200 μl PBS containing 20 mM sodium phosphate as the placebo, was administered daily from day 3 until day 11 (with the exception of day 9). Animals were scored daily until day 14 for degree of inflammation. Mean arthritis score per experimental group (5 mice) is indicated at each time point.
# One of the peptide based human PAD 2 and PAD 4 inhibitors was tested in the commercially available collagen antibody induced arthritis (CAIA) mouse model (Modiquest research B.V., product number 18.101). Experimental procedures were performed according to manufacturers specifications to induce arthritis in mice (World Wide Web (www) modiquestresearch.n1/shop/files/18.101-50MG%20 —2007.08.22.pdf) In short, on day 0 male DBA/J1 mice (5mice/group) of the age of 8 weeks have been injected i.p. with a mix of 8 anti-collagen antibodies (2.8 mg/mouse). […]
# Animals where scored daily for degree of inflammation in their paws. […]
compound,measurement,setting,value
"CC[C@H](C)[C@H](NC(=O)[C@H](Cc1ccccc1)NC(=O)[C@H](CC(=O)O)NC(=O)[C@H](CCCNC(=N)CF)NC(=O)[C@H](CC(=O)O)NC(=O)[C@H](Cc1ccccc1)NC(=O)[C@H](CCCCN)NC(C)=O)C(N)=O [Peptide 0743-58FA, Ac-K-F-D-O(FA)-D-F-I-amide] (Ac-KFD[Orn(fluoroacetimidoyl)]DFI-NH2)",IC50,creatine kinase (CK),800 µM
same,IC50,caspase-3,920 µM
same,IC50,PAD2 [1],35 µM
same,IC50,hDDAH-1,> 2000 µM
same,IC50,transglutaminase (TG),1000 µM
same,IC50,papain,> 2000 µM
"N=C(CF)NCCC[C@H](NC(=O)[C@H](CC(=O)O)NC(=O)CN)C(=O)N[C@@H](CO)C(=O)NCC(=O)O [SEQ ID NO: 13, G-D-O(FA)-S-G] (H-GD[Orn(fluoroacetimidoyl)]SG-OH)",IC50,PAD2 [2],17 µM
Ac-Y-D-O(CA)-G-S-amide (Ac-YD[Orn](CA)GS-NH2; SMILES CC(=O)N[C@@H](Cc1ccc(O)cc1)C(=O)N[C@@H](CC(=O)O)C(=O)N[C@@H](CCCNC(=N)CCl)C(=O)NCC(=O)N[C@@H](CO)C(N)=O) [CXP5.7-011],degree of inflammation (mean arthritis score),[3],clearly demonstrates the inhibitory potential of the inhibitor in this model
